Assay results as given in patent publication US9695155B2, “Herbicidal substituted pyrimidinyloxy benzene compounds” (E. I. DU PONT DE NEMOURS AND COMPANY, priority 2013, dated 2017).

What was measured:
large (Lg) crabgrass [1] = assay: Test A preemergence; type: in vivo, Digitaria sanguinalis; conditions: for Plant response rating, Crabgrass, Large: 125 g ai/ha, 0 to 100 scale where 0 is no effect and 100 is complete control; for Crabgrass, Large plant response rating: 500 g ai/ha, 0 to 100 scale, 0 no effect, 100 complete control, approx. 10 days
Method in brief: (§1)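 Pre- and postemergence greenhouse screen. Soil: loam + sand. Spray carrier: solvent mixture, non-phytotoxic, with surfactant. Post timing at 1–2 leaves, height 2–10 cm. Readout: visual injury on a 0–100 scale roughly 10 days after application, untreated plants as reference.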

giant foxtail [2] = assay: Test A preemergence; type: in vivo, Setaria faberii; conditions: for Plant response rating, Foxtail, Giant: 125 g ai/ha, 0 to 100 scale where 0 is no effect and 100 is complete control; for Foxtail, Giant plant response rating: 500 g ai/ha, 0 to 100 scale, 0 no effect, 100 complete control, approx. 10 days
Method in brief: as §1

morningglory [3] = assay: Test A preemergence; type: in vivo, Ipomoea spp.; conditions: for Plant response rating, Morningglory: 125 g ai/ha, 0 to 100 scale where 0 is no effect and 100 is complete control; for Morningglory plant response rating: 500 g ai/ha, 0 to 100 scale, 0 no effect, 100 complete control, approx. 10 days
Method in brief: as §1

wheat = assay: Test A preemergence; type: in vivo, Triticum aestivum; conditions: for Plant response rating, Wheat: 125 g ai/ha, 0 to 100 scale where 0 is no effect and 100 is complete control; for Wheat plant response rating: 500 g ai/ha, 0 to 100 scale, 0 no effect, 100 complete control, approx. 10 days
Method in brief: as §1

large (Lg) crabgrass [4] = assay: Test A postemergence; type: in vivo, Digitaria sanguinalis
Method in brief: as §1

giant foxtail [5] = assay: Test A postemergence; type: in vivo, Setaria faberii
Method in brief: as §1

velvetleaf = assay: Test A postemergence; type: in vivo, Abutilon theophrasti
Method in brief: as §1

corn = assay: Test A postemergence; type: in vivo, Zea mays
Method in brief: as §1

rice = assay: Test B flooded paddy test; type: in vivo, Oryza sativa; conditions: Flood, 250 g ai/ha; 0 to 100 scale where 0 is no effect and 100 is complete control
Method in brief: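 Scores from 0 (no effect) to 100 (complete control) are visual comparisons with controls, taken 13 to 15 days after compound was applied into floodwater 3 cm deep around 2-leaf plants.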

Italian ryegrass = assay: Test C postemergence; type: in vivo, Lolium multiflorum; conditions: for Plant response rating (0 to 100), Ryegrass, Italian: postemergence; for Plant response rating, Ryegrass, Italian: Postemergence, scale 0 to 100 (0 no effect, 100 complete control)
Method in brief: (§2)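 Injury was assessed visually against controls 13 to 15 days after application, with 0 meaning no effect and 100 full control; missing entries are shown as a dash. Preemergence sprays hit seeded loam–sand soil, postemergence sprays hit 1- to 4-leaf plants.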

morningglory [6] = assay: Test C postemergence; type: in vivo, Ipomoea coccinea; conditions: for Plant response rating (0 to 100), Morningglory: postemergence; for Plant response rating, Morningglory: Postemergence, scale 0 to 100 (0 no effect, 100 complete control)
Method in brief: as §2

yellow nutsedge = assay: Test C postemergence; type: in vivo, Cyperus esculentus; conditions: for Plant response rating (0 to 100), Nutsedge, Yellow: postemergence; for Plant response rating, Nutsedge, Yellow: Postemergence, scale 0 to 100 (0 no effect, 100 complete control)
Method in brief: as §2

pigweed = assay: Test C postemergence; type: in vivo, Amaranthus retroflexus; conditions: for Plant response rating (0 to 100), Pigweed: postemergence; for Plant response rating, Pigweed: Postemergence, scale 0 to 100 (0 no effect, 100 complete control)
Method in brief: as §2

kochia = assay: Test C postemergence; type: in vivo, Kochia scoparia; conditions: for Plant response rating (0 to 100), Kochia: postemergence; for Plant response rating, Kochia: Postemergence, scale 0 to 100 (0 no effect, 100 complete control)
Method in brief: as §2

wild oat = assay: Test C postemergence; type: in vivo, Avena fatua; conditions: for Plant response rating (0 to 100), Oat, Wild: postemergence; for Plant response rating, Oat, Wild: Postemergence, scale 0 to 100 (0 no effect, 100 complete control)
Method in brief: as §2

[7] = 125 g ai/ha, 0 to 100 scale where 0 is no effect and 100 is complete control
[8] = 500 g ai/ha, 0 to 100 scale, 0 no effect, 100 complete control

## N#Cc1cccc(Oc2ncc(Br)cn2)c1-n1cc(Br)cn1 [Compound 57]
Large (Lg) crabgrass [1]
  Plant response rating, Crabgrass, Large: 90
  Crabgrass, Large plant response rating: 100
Giant foxtail [2]
  Plant response rating, Foxtail, Giant: 80
  Foxtail, Giant plant response rating: 100
Morningglory [3]
  Plant response rating, Morningglory: 0
  Morningglory plant response rating: 40
wheat
  Plant response rating, Wheat: 0
  Wheat plant response rating: 50
Large (Lg) crabgrass [4]; [7]
  Plant response rating, Crabgrass, Large: 90
Large (Lg) crabgrass [4]; [8]
  Plant response rating, Crabgrass, Large: 100
Giant foxtail [5]; [7]
  Plant response rating, Foxtail, Giant: 80
Giant foxtail [5]; [8]
  Plant response rating, Foxtail, Giant: 100
velvetleaf; [7]
  Plant response rating, Velvetleaf: 100
velvetleaf; [8]
  Plant response rating, Velvetleaf: 100
corn; [7]
  Plant response rating, Corn: 30
corn; [8]
  Plant response rating, Corn: 90
rice
  Plant response rating, Rice: 0
Italian ryegrass; 125 g ai/ha
  Plant response rating (0 to 100), Ryegrass, Italian: 10
Italian ryegrass; 250 g ai/ha
  Plant response rating (0 to 100), Ryegrass, Italian: 15
Italian ryegrass; 31 g ai/ha, 13 to 15 days
  Plant response rating, Ryegrass, Italian: 0
Italian ryegrass; 62 g ai/ha
  Plant response rating, Ryegrass, Italian: 5
Morningglory [6]; 125 g ai/ha
  Plant response rating (0 to 100), Morningglory: 85
Morningglory [6]; 250 g ai/ha
  Plant response rating (0 to 100), Morningglory: 95
Morningglory [6]; 31 g ai/ha, 13 to 15 days
  Plant response rating, Morningglory: 45
Morningglory [6]; 62 g ai/ha
  Plant response rating, Morningglory: 80
Yellow nutsedge; 125 g ai/ha
  Plant response rating (0 to 100), Nutsedge, Yellow: 5
Yellow nutsedge; 250 g ai/ha
  Plant response rating (0 to 100), Nutsedge, Yellow: 15
Yellow nutsedge; 31 g ai/ha, 13 to 15 days
  Plant response rating, Nutsedge, Yellow: 5
Yellow nutsedge; 62 g ai/ha
  Plant response rating, Nutsedge, Yellow: 5
pigweed; 250 g ai/ha
  Plant response rating (0 to 100), Pigweed: 95
pigweed; 31 g ai/ha, 13 to 15 days
  Plant response rating, Pigweed: 65
pigweed; 62 g ai/ha
  Plant response rating, Pigweed: 85
kochia; 125 g ai/ha
  Plant response rating (0 to 100), Kochia: 90
kochia; 250 g ai/ha
  Plant response rating (0 to 100), Kochia: 100
kochia; 31 g ai/ha, 13 to 15 days
  Plant response rating, Kochia: 85
kochia; 62 g ai/ha
  Plant response rating, Kochia: 90
Wild oat; 125 g ai/ha
  Plant response rating (0 to 100), Oat, Wild: 30
Wild oat; 250 g ai/ha
  Plant response rating (0 to 100), Oat, Wild: 35
Wild oat; 31 g ai/ha, 13 to 15 days
  Plant response rating, Oat, Wild: 10
Wild oat; 62 g ai/ha
  Plant response rating, Oat, Wild: 15

## Fc1cnc(Oc2ccccc2-n2cc(C(F)(F)F)cn2)nc1 [Compound 47]
Large (Lg) crabgrass [1]
  Plant response rating, Crabgrass, Large: 90
  Crabgrass, Large plant response rating: 100
Giant foxtail [2]
  Plant response rating, Foxtail, Giant: 100
  Foxtail, Giant plant response rating: 100
Morningglory [3]
  Plant response rating, Morningglory: 0
  Morningglory plant response rating: 100
wheat
  Plant response rating, Wheat: 0
  Wheat plant response rating: 40
Large (Lg) crabgrass [4]; [7]
  Plant response rating, Crabgrass, Large: 70
Large (Lg) crabgrass [4]; [8]
  Plant response rating, Crabgrass, Large: 100
Giant foxtail [5]; [7]
  Plant response rating, Foxtail, Giant: 80
Giant foxtail [5]; [8]
  Plant response rating, Foxtail, Giant: 100
velvetleaf; [7]
  Plant response rating, Velvetleaf: 100
velvetleaf; [8]
  Plant response rating, Velvetleaf: 100
corn; [7]
  Plant response rating, Corn: 40
corn; [8]
  Plant response rating, Corn: 90
rice
  Plant response rating, Rice: 35
Italian ryegrass; 125 g ai/ha
  Plant response rating (0 to 100), Ryegrass, Italian: 0
Italian ryegrass; 250 g ai/ha
  Plant response rating (0 to 100), Ryegrass, Italian: 0
Italian ryegrass; 31 g ai/ha, 13 to 15 days
  Plant response rating, Ryegrass, Italian: 0
Italian ryegrass; 62 g ai/ha
  Plant response rating, Ryegrass, Italian: 0
Morningglory [6]; 125 g ai/ha
  Plant response rating (0 to 100), Morningglory: 70
Morningglory [6]; 250 g ai/ha
  Plant response rating (0 to 100), Morningglory: 75
Morningglory [6]; 31 g ai/ha, 13 to 15 days
  Plant response rating, Morningglory: 20
Morningglory [6]; 62 g ai/ha
  Plant response rating, Morningglory: 70
Yellow nutsedge; 125 g ai/ha
  Plant response rating (0 to 100), Nutsedge, Yellow: 0
Yellow nutsedge; 250 g ai/ha
  Plant response rating (0 to 100), Nutsedge, Yellow: 10
Yellow nutsedge; 31 g ai/ha, 13 to 15 days
  Plant response rating, Nutsedge, Yellow: 0
Yellow nutsedge; 62 g ai/ha
  Plant response rating, Nutsedge, Yellow: 0
pigweed; 125 g ai/ha
  Plant response rating (0 to 100), Pigweed: 65
pigweed; 250 g ai/ha
  Plant response rating (0 to 100), Pigweed: 70
pigweed; 31 g ai/ha, 13 to 15 days
  Plant response rating, Pigweed: 40
pigweed; 62 g ai/ha
  Plant response rating, Pigweed: 55
kochia; 125 g ai/ha
  Plant response rating (0 to 100), Kochia: 25
kochia; 250 g ai/ha
  Plant response rating (0 to 100), Kochia: 60
kochia; 31 g ai/ha, 13 to 15 days
  Plant response rating, Kochia: 5
kochia; 62 g ai/ha
  Plant response rating, Kochia: 10
Wild oat; 125 g ai/ha
  Plant response rating (0 to 100), Oat, Wild: 0
Wild oat; 250 g ai/ha
  Plant response rating (0 to 100), Oat, Wild: 5
Wild oat; 31 g ai/ha, 13 to 15 days
  Plant response rating, Oat, Wild: 0
Wild oat; 62 g ai/ha
  Plant response rating, Oat, Wild: 0
